Reference: ChEMBL document CHEMBL5104093, “A comprehensive review on β-lapachone: Mechanisms, structural modifications, and therapeutic potentials” (Eur J Med Chem, 2021)
In brackets after ≈: the same amount, converted by molar mass.

Key:
HL-60 [1] = assay: Cytotoxicity against human HL-60 cells assessed as reduction in cell viability incubated for 72 hrs by MTT assay; format: functional, cell-based; conditions: HL-60, 72 h
SF-295 [2] = assay: Cytotoxicity against human SF-295 cells assessed as reduction in cell viability incubated for 72 hrs by MTT assay; format: functional, cell-based; conditions: SF-295, 72 h
MDA-MB-435 = assay: Cytotoxicity against human MDA-MB-435 cells assessed as reduction in cell viability incubated for 72 hrs by MTT assay; format: functional, cell-based; conditions: MDA-MB-435, 72 h
HCT-8 = assay: Cytotoxicity against human HCT-8 cells assessed as reduction in cell viability incubated for 72 hrs by MTT assay; format: functional, cell-based; conditions: HCT-8, 72 h
Trypanosoma cruzi [3] = assay: Antitrypanosomal activity against bloodstream form of Trypanosoma cruzi trypomastigotes infected in Swiss mouse assessed as reduction in viable parasite in blood incubated for 24 hrs by Neubauer counting chamber method; format: functional, organism-based
Trypanosoma cruzi [4] = assay: Antitrypanosomal activity against bloodstream form of Trypanosoma cruzi Y trypomastigotes infected in albino mouse assessed as reduction in viable parasite in blood by Neubauer counting chamber method; format: functional, organism-based
OVCAR-8 = assay: Cytotoxicity against human OVCAR-8 cells assessed as reduction in cell viability by MTT assay; format: functional, cell-based
SF-295 [5] = assay: Cytotoxicity against human SF-295 cells assessed as reduction in cell viability by MTT assay; format: functional, cell-based
HCT-116 = assay: Cytotoxicity against human HCT-116 cells assessed as reduction in cell viability by MTT assay; format: functional, cell-based
HL-60 [6] = assay: Cytotoxicity against human HL-60 cells assessed as reduction in cell viability by MTT assay; format: functional, cell-based
[7] = system: Mycobacterium tuberculosis; assay: Antimycobacterial activity against Mycobacterium tuberculosis H37Rv ATCC 27294 assessed as bacterial growth inhibition incubated for 7 days by resazurin dye based microtiter assay; format: functional; conditions: ATCC 27294, 168 h, time 7 day
Trypanosoma cruzi [8] = assay: Antitrypanosomal activity against bloodstream form of Trypanosoma cruzi Y trypomastigotes infected in albino mouse assessed as reduction in viable parasite in blood incubated for 24 hrs by Neubauer counting chamber method; format: functional, organism-based
PC-3 = assay: Cytotoxicity against human PC-3 cells assessed as reduction in cell viability incubated for 72 hrs by MTT assay; format: functional, cell-based; conditions: PC-3, 72 h
B16 = assay: Cytotoxicity against mouse B16 cells assessed as reduction in cell viability incubated for 72 hrs by MTT assay; format: functional, cell-based; conditions: B16, 72 h
Staphylococcus aureus = assay: Antibacterial activity against Staphylococcus aureus 2065 MA assessed as diameter of bacterial growth inhibition by Mueller-Hinton broth based assay; format: functional
Jurkat = assay: Cytotoxicity against human Jurkat cells assessed as reduction in cell viability incubated for 72 hrs by MTT assay; format: functional, cell-based
MOLT-4 = assay: Cytotoxicity against human MOLT-4 cells assessed as reduction in cell viability incubated for 72 hrs by MTT assay; format: functional, cell-based; conditions: MOLT-4, 72 h
K562 = assay: Cytotoxicity against human K562 cells assessed as reduction in cell viability incubated for 72 hrs by MTT assay; format: functional, cell-based; conditions: K562, 72 h
Trypanosoma cruzi [9] = assay: Antitrypanosomal activity against bloodstream form of Trypanosoma cruzi Y trypomastigotes infected in Swiss Webster mouse assessed as reduction in viable parasite in blood incubated for 24 hrs by Neubauer counting chamber based light microscopic analysis; format: functional, organism-based
HeLa = assay: Cytotoxicity against human HeLa cells assessed as reduction in cell viability incubated for 48 hrs by MTT assay; format: functional, cell-based
HepG2 = assay: Cytotoxicity against human HepG2 cells assessed as reduction in cell viability incubated for 48 hrs by MTT assay; format: functional, cell-based; conditions: HepG2, 48 h
KB = assay: Cytotoxicity against human KB cells assessed as reduction in cell viability incubated for 48 hrs by MTT assay; format: functional, cell-based
[10] = Cytotoxicity against monkey LLC-MK2 cells assessed as reduction in cell viability incubated for 96 hrs by trypan blue assay; format: toxicity, cell-based, Macaca mulatta; conditions: rhesus monkey, read-out: LC50
MCF7 = assay: Cytotoxicity against human MCF7 cells assessed as reduction in cell viability incubated for 72 hrs by MTT assay; format: functional, cell-based; conditions: MCF7, 72 h
NCI-H292 = assay: Cytotoxicity against human NCI-H292 cells assessed as reduction in cell viability incubated for 72 hrs by MTT assay; format: functional, cell-based; conditions: NCI-H292, 72 h
HEp-2 = assay: Cytotoxicity against human HEp-2 cells assessed as reduction in cell viability incubated for 72 hrs by MTT assay; format: functional, cell-based; conditions: HEp-2, 72 h

O=C1C(=O)c2c(O)cccc2C2=C1CCC(c1ccc(Br)cc1)O2 (configuration not stated)
IC50 (HL-60 [1]): 0.15 µM | IC50 (SF-295 [2]): 0.15 µM | IC50 (MDA-MB-435): 0.15 µM | IC50 (HCT-8): 0.15 µM

CC1(C)CCc2c(c3ccccc3c3nc(-c4ccccc4Cl)[nH]c23)O1
IC50 (Trypanosoma cruzi [3]): 37.5 µM

CC(=O)OC[C@H]1O[C@@H](OCc2cn(C3C4=C(OC3(C)C)c3ccccc3C(=O)C4=O)nn2)[C@H](OC(C)=O)[C@@H](OC(C)=O)[C@H]1OC(C)=O (some centres not stated)
IC50 (Trypanosoma cruzi [4]): 209 µM

Cc1ccc(-c2cc(NC3C4=C(OC3(C)C)c3ccccc3C(=O)C4=O)n(-c3ccccc3)n2)cc1 (configuration not stated)
IC50 (OVCAR-8): 0.99 µM | IC50 (SF-295 [5]): 1.05 µM | IC50 (HCT-116): 0.72 µM | IC50 (HL-60 [6]): 0.34 µM

CC1(C)CCc2c(c3ccccc3c3nc(-c4ccc(F)cc4)[nH]c23)O1
IC50 (Trypanosoma cruzi [3]): 37.5 µM

CC1(C)CCc2c(c3ccccc3c3nc(-c4cccc(F)c4)[nH]c23)O1
MIC [7]: 1.56 µg/mL (≈ 4.5 µM)

COc1ccc(-c2nc3c([nH]2)c2c(c4ccccc43)OC(C)(C)CC2)cc1
IC50 (Trypanosoma cruzi [8]): 259 µM

CC1(C)OC2=C(C(=O)C(=O)c3ccccc32)C1n1cc(C2=CCCCC2)nn1 (configuration not stated)
IC50 (HL-60 [1]): < 5 µM | IC50 (PC-3): < 1.25 µM | IC50 (SF-295 [2]): < 1.25 µM | IC50 (MDA-MB-435): < 1.25 µM | IC50 (HCT-8): < 1.25 µM | IC50 (B16): < 1.25 µM

CC1(C)OC2=C(C(=O)C(=O)c3ccccc32)C1Sc1c(F)c(F)c(F)c(F)c1F (configuration not stated)
zone diameter (Staphylococcus aureus): 10 mm

CC1(C)OC2=C(C(=O)C(=O)c3ccccc32)C1n1cc(-c2ccc([N+](=O)[O-])cc2)nn1 (configuration not stated)
IC50 (HL-60 [1]): 0.74 µM | IC50 (Jurkat): 0.74 µM | IC50 (MOLT-4): 0.74 µM | IC50 (K562): 0.74 µM

CC1(C)CCc2c(c3ccccc3c3nc(-c4ccc(Br)cc4)[nH]c23)O1
IC50 (Trypanosoma cruzi [3]): 37.5 µM

CC1(C)Oc2c(c3nc4ccccc4nc3c3ccccc23)C1N=[N+]=[N-] (configuration not stated)
MIC [7]: 25 µg/mL (≈ 73.2 µM)

O=C1C(=O)c2ccccc2C2=C1CC(CI)O2 (configuration not stated)
IC50 (Jurkat): 1.38 µM | IC50 (MOLT-4): 1.38 µM | IC50 (K562): 1.38 µM

CCCC[Se]C1CC2=C(OC1(C)C)c1ccccc1C(=O)C2=O (configuration not stated)
IC50 (Trypanosoma cruzi [9]): 109 µM

CO[C@@H]1O[C@H](COC2C3=C(OC2(C)C)c2ccccc2C(=O)C3=O)[C@H]2OC(C)(C)O[C@@H]12 (some centres not stated)
IC50 (OVCAR-8): 0.16 µM | IC50 (SF-295 [5]): 0.16 µM | IC50 (HCT-116): 0.16 µM | IC50 (HL-60 [6]): 0.16 µM

CC1(C)O[C@@H]2O[C@@H](COC3C4=C(OC3(C)C)c3ccccc3C(=O)C4=O)[C@H]3OC(C)(C)O[C@H]3[C@@H]2O1 (some centres not stated)
IC50 (OVCAR-8): 0.16 µM | IC50 (SF-295 [5]): 0.16 µM | IC50 (HCT-116): 0.16 µM | IC50 (HL-60 [6]): 0.16 µM

Cc1ccccc1-c1nc2c([nH]1)c1c(c3ccccc32)OC(C)(C)CC1
IC50 (Trypanosoma cruzi [3]): 37.5 µM | MIC [7]: 1.56 µg/mL (≈ 4.56 µM)

CC1COC2=C(C1)C(=O)C(=O)c1ccccc12 (configuration not stated)
IC50 (HeLa): 0.92 µM | IC50 (HepG2): 0.92 µM | IC50 (KB): 0.92 µM

CC1(C)CC2=C(O1)c1ccccc1C(=O)C2=O [NOR-BETA-LAPACHONE]
IC50 (Jurkat): 1.34 µM

O=C(Cn1ccnc1[N+](=O)[O-])NCc1ccccc1 [BENZNIDAZOLE]
IC50 (Trypanosoma cruzi [9]): 104 µM | CC50 at 96 h [10]: 324 µM

O=C1C(=O)c2c(O)cccc2C2=C1CCC(c1ccc(Cl)cc1)O2 (configuration not stated)
IC50 (HL-60 [1]): 0.17 µM | IC50 (SF-295 [2]): 0.17 µM | IC50 (MDA-MB-435): 0.15 µM | IC50 (HCT-8): 0.17 µM

CC1(C)CCc2c(c3ccccc3c3nc(-c4ccc([N+](=O)[O-])cc4)[nH]c23)O1
MIC [7]: > 100 µg/mL

CC(=O)OCC1CC2=C(OC1(C)C)c1ccccc1C(=O)C2=O (configuration not stated)
IC50 (MCF7): 2.73 µM | IC50 (NCI-H292): 2.26 µM | IC50 (HEp-2): 2.26 µM

COc1ccc(/C=C/C(=O)c2ccc(NC3C4=C(OC3(C)C)c3ccccc3C(=O)C4=O)cc2)cc1 (configuration not stated)
IC50 (Trypanosoma cruzi [4]): 230 µM

CC(C)(O)c1cn(C2C3=C(OC2(C)C)c2ccccc2C(=O)C3=O)nn1 (configuration not stated)
IC50 (HL-60 [1]): 2.8 µM | IC50 (PC-3): 2.8 µM | IC50 (SF-295 [2]): 2.8 µM | IC50 (MDA-MB-435): 2.8 µM | IC50 (HCT-8): 2.8 µM | IC50 (B16): 2.8 µM

COc1ccc(-c2cn(C3C4=C(OC3(C)C)c3ccccc3C(=O)C4=O)nn2)cc1 (configuration not stated)
IC50 (HL-60 [1]): 0.94 µM | IC50 (Jurkat): 0.94 µM | IC50 (MOLT-4): 0.94 µM | IC50 (K562): 0.94 µM

O=C1C(=O)c2ccccc2C2=C1CCCO2
IC50 (HepG2): 0.92 µM

CC1CC2=C(O1)c1ccccc1C(=O)C2=O (configuration not stated)
IC50 (HL-60 [1]): 1.11 µM

CC1(C)OC2=C(CC1[Se]c1cccc(C(F)(F)F)c1)C(=O)C(=O)c1ccccc12 (configuration not stated)
IC50 (Trypanosoma cruzi [9]): 54.9 µM | IC50 (Trypanosoma cruzi [4]): 54.9 µM

O=C1C(=O)c2ccccc2C2=C1CC(O)CO2 (configuration not stated)
IC50 (HeLa): 7.61 µM | IC50 (HepG2): 7.61 µM | IC50 (KB): 7.61 µM
